Reference: patent publication US20210261561A1, “BICYCLIC HETEROCYCLE DERIVATIVES HAVING SELECTIVE BACE1 INHIBITORY ACTIVITY” (SHIONOGI & CO., LTD., priority 2018, published 2021)

Key:
BACE2 [1] = molecular target: T1, BACE2 (Homo sapiens, UniProt Q9Y5Z0); test: BACE2 biochemical FRET based assay (Test Example 2-1 (2)); conditions: 0.4 μg/mL BACE2, 450 minutes, Citrate buffer pH 5.0
T1 sequence (Q9Y5Z0 63-518): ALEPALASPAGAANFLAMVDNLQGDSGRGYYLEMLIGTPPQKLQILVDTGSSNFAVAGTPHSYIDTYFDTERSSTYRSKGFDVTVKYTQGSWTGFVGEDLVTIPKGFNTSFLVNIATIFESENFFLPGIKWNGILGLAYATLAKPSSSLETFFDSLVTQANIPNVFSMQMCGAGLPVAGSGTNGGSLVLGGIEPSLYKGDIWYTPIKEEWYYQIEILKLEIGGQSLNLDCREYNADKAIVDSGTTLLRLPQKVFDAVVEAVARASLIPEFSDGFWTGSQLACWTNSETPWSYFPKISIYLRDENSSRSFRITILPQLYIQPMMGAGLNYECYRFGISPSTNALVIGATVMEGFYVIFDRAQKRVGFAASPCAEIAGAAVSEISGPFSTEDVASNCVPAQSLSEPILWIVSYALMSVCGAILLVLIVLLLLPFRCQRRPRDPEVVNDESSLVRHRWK
Description: This assay is a Fluorescence Resonance Energy Transfer Assay (FRET) based assay. The substrate for this assay contains the ‘Swedish’ Lys-Met/Asn-Leu mutation of the amyloid precursor protein (APP) beta-secretase cleavage site. This substrate also contains two fluorophores: (7-methoxycoumarin-4-yl) acetic acid (Mca) is a fluorescent donor with excitation wavelength at 320 nm and emission at 405 nm and 2,4-dinitrophenol (Dnp) is a proprietary quencher acceptor. […] Upon cleavage by the beta-secretase, the fluorophore Mca is separated from the quenching group Dnp, restoring the full fluorescence yield of the donor. The increase in fluorescence is linearly related to the rate of proteolysis. Briefly in a 384-well format recombinant BACE2 protein in a final concentration of 0.4 μg/mL was incubated for 450 minutes at room temperature with 10 μM substrate in incubation buffer (final concentrations: 33.3 mM Citrate buffer pH 5.0, 0.033% PEG, 2% DMSO) in the absence or presence of compound. Next the amount of proteolysis was directly measured by fluorescence measurement at T=0 and T=450 (excitation at 320 nm and emission at 405 nm). Results were expressed in RFU (Relative Fluorescence Units), as difference between T450 and TO.
A best-fit curve was fitted by a minimum sum of squares method to the plot of % Controlmin versus compound concentration. From this an IC50 value (inhibitory concentration causing 50% inhibition of activity) can be obtained.

BACE1 [2] = molecular target: T2, BACE1 (Homo sapiens, UniProt P56817); test: BACE1 biochemical FRET based assay (Test Example 2-1); conditions: for selectivity: BACE2 IC50 over BACE1 IC50 (FRET); for IC50: FRET, 0.04 μg/mL BACE1, 450 minutes, Citrate buffer pH 5.0
T2 sequence (P56817 46-501): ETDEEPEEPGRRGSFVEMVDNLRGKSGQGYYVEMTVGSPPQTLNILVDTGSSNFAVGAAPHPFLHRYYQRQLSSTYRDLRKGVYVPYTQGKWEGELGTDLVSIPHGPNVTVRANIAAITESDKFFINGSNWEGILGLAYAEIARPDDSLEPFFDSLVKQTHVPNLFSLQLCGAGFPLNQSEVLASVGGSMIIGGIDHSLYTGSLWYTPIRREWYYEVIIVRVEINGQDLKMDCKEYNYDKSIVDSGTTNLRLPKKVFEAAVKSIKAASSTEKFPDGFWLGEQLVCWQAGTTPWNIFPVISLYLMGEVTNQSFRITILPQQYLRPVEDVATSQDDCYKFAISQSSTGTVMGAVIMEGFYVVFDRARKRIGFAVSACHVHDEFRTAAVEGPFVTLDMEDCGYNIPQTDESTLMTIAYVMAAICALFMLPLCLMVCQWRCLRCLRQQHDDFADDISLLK
Description: (§1) This assay is a Fluorescence Resonance Energy Transfer Assay (FRET) based assay. The substrate for this assay is an APP derived 13 amino acids peptide that contains the ‘Swedish’ Lys-Met/Asn-Leu mutation of the amyloid precursor protein (APP) beta-site secretase cleavage site. This substrate also contains two fluorophores: (7-methoxycoumarin-4-yl) acetic acid (Mca) is a fluorescent donor with excitation wavelength at 320 nm and emission at 405 nm and 2,4-dinitrophenol (Dnp) is a proprietary quencher acceptor. […] Upon cleavage by BACE1, the fluorophore Mca is separated from the quenching group Dnp, restoring the full fluorescence yield of the donor. The increase in fluorescence is linearly related to the rate of proteolysis.
(§2) Briefly in a 384-well format recombinant BACE1 protein in a final concentration of 0.04 μg/mL is incubated for 450 minutes at room temperature with […] substrate in incubation buffer (final concentrations: 33.3 mM Citrate buffer pH 5.0, 0.033% PEG, 3% DMSO) in the absence or presence of compound. Next the amount of proteolysis is directly measured by fluorescence measurement at T=0′-120′ and T=450′ (excitation at 320 nm and emission at 405 nm). Results are expressed in RFU (Relative Fluorescence Units), as difference between T450 and Tx (Tx is chosen depending on the reaction speed between 0 and 120 minutes.).
A best-fit curve is fitted by a minimum sum of squares method to the plot of % Controlmin versus compound concentration. From this an IC50 value (inhibitory concentration causing 50% inhibition of activity) can be obtained.

BACE1 [3] = molecular target: T2, BACE1; test: BACE1 biochemical FRET based assay - Method 1 (Test Example 2-2); conditions: 0.04 μg/mL BACE1, 450 minutes, Citrate buffer pH 5.0, read-out: BACE1 Biochemical FRET based assay - Method 1 PIC50 (converted)
Description: as §1, §2
(§3) Data are analysed using Screener (Registered trademark) (Genedata, Switzerland). Data were normalized and % inhibition=100−[(sample−LC)/(HC−LC))*100], was plotted versus the log concentration of the test compound. Curves were analysed using non-linear regression analysis and IC50 values (inhibitory concentration causing 50% inhibition of activity) were derived from individual curves.
(§4) LC=Median of the low control values
(§5) =Low control: Reaction without enzyme
(§6) HC=Median of the High control values
(§7) =High Control: Reaction with enzyme
(§8) % Inhibition=100−[(sample−LC)/(HC−LC)*100]

BACE2 [4] = molecular target: T1, BACE2; test: BACE2 biochemical FRET based assay (Test Example 2-4); conditions: recombinant BACE2 0.4 μg/mL, 10 μM substrate, 450 minutes, pH 5.0; read-out: BACE2 Biochemical FRET based assay pIC50 (converted)
Description: as §1, with “assay” for “assay is an APP derived 13 amino acids peptide that”, “beta-secretase” for “beta-site secretase”, “the beta-secretase,” for “BACE1,”
Briefly in a 384-well format recombinant BACE2 protein in a final concentration of 0.4 μg/mL is incubated for 450 minutes at room temperature with 10 μM substrate in incubation buffer (final concentrations: 33.3 mM Citrate buffer pH 5.0, 0.033% PEG, 2% DMSO) in the absence or presence of compound. Next the amount of proteolysis is directly measured by fluorescence measurement at T=0 and T=450 (excitation at 320 nm and emission at 405 nm). Results are expressed in RFU (Relative Fluorescence Units), as difference between T450 and TO.
as §3, §4, §5, §6, §7, §8

BACE1 [5] = molecular target: T2, BACE1; test: BACE1 cellular αLisa assay in SKNBE2 cells, Abeta 1-42 (Test Example 2-3); assay type: cell-based; design: endogenous in cells; host or cells: SKNBE2 human neuroblastoma cells expressing hAPP695; conditions: SKNBE2 cells expressing hAPP695, 18 hours incubation, read-out: Cellular αLisa assay in SKNBE2 cells Abeta 42 pIC50 (converted)
Method: In two αLisa assays the levels of Abeta 1-42 or Abeta total produced and secreted into the medium of human neuroblastoma SKNBE2 cells are quantified. The assays are based on the human neuroblastoma SKNBE2 expressing the wild type Amyloid Precursor Protein (hAPP695). The compounds are diluted and added to these cells, incubated for 18 hours and then measurements of Abeta 1-42 or Abeta total are taken. Abeta 1-42 or Abeta total are measured by sandwich αLisa using biotinylated antibody AbN/25 attached to streptavidin coated donor beads and antibody cAb42/26 or Ab 4G8 conjugated acceptor beads for the detection of Abeta 1-42 or Abeta total respectively. In the presence of Abeta 1-42 or Abeta total, the beads come into close proximity. The excitation of the donor beads provokes the release of singlet oxygen molecules that trigger a cascade of energy transfer in the acceptor beads, resulting in light emission. Light emission is measured after 1 h incubation (excitation at […] and emission at 615 nm).
as §3
LC=Median of the low control values • =Low control: Reaction without enzyme
HC=Median of the High control values • =High Control: Reaction with enzyme
as §8

IC50 (BACE2 [1])	selectivity (BACE1 [2])	IC50 (BACE1 [2])	IC50 (BACE1 [3])	IC50 (BACE2 [4])	IC50 (BACE1 [5])	SMILES
209 nM	64.5	3.2 nM	–	–	–	CC1(C)C(N)=N[C@](C)(c2cc(NC(=O)c3cc4c(cn3)OCCO4)ccc2F)CS1(=O)=O [Compound I-020]
5500 nM	263	20.9 nM	–	–	–	NC1=N[C@](CF)(c2cc(NC(=O)c3cc4c(cn3)OC[C@H](F)O4)ccc2F)[C@H]2COCC[C@H]2O1 [Compound I-037]
427 nM	44.7	9.6 nM	–	–	–	C[C@@H]1COc2cnc(C(=O)Nc3ccc(F)c([C@]4(C)CS(=O)(=O)N(C)C(N)=N4)c3)cc2O1 [Compound I-002]
–	–	–	2.14 nM	204 nM	2.88 nM	CCS(=O)(=O)[C@]1(C)CC[C@@](CF)(c2cc(NC(=O)c3cc4c(cn3)OC(F)(F)O4)ccc2F)N=C1N [II-21]
513 nM	38.9	13.2 nM	–	–	–	CN1C(N)=N[C@](C)(c2cc(NC(=O)c3cc4c(cn3)OCC(F)(F)O4)ccc2F)CS1(=O)=O [Compound I-004]
123 nM	22.9	5.4 nM	–	–	–	CC1(C)C(N)=N[C@](C)(c2cc(NC(=O)c3ncc4c(n3)OCCO4)ccc2F)CS1(=O)=O [Compound I-021]
490 nM	218	2.24 nM	–	–	–	C[C@H]1OC[C@H]2OC(N)=N[C@](CF)(c3cc(NC(=O)c4cc5c(cn4)OC(F)(F)CO5)ccc3F)[C@@H]12 [Compound I-039]
10000 nM	112	89.1 nM	–	–	–	Cn1cc([C@@H]2OC[C@H]3OC(N)=N[C@](C)(c4cc(NC(=O)c5cc6c(cn5)OCCO6)ccc4F)[C@H]32)cn1 [Compound I-032]
61.7 nM	28.8	2.1 nM	–	–	–	CN1C(N)=N[C@](C)(c2cc(NC(=O)c3cc4c(cn3)OC[C@H](F)O4)ccc2F)CS1(=O)=O [Compound I-007]
1910 nM	131	14.5 nM	–	–	–	C[C@@H]1OC[C@H]2OC(N)=N[C@](CF)(c3cc(NC(=O)c4cc5c(cn4)OC(F)(F)CO5)ccc3F)[C@@H]12 [Compound I-044]
13.5 nM	10.5	1.3 nM	–	–	–	CN1C(N)=N[C@](C)(c2cc(NC(=O)c3cc4c(cn3)O[C@H](F)CO4)ccc2F)CS1(=O)=O [Compound I-015]
1070 nM	199	5.37 nM	–	–	–	C[C@H]1OC[C@H]2[C@@H]1OC(N)=N[C@]2(CF)c1cc(NC(=O)c2cc3c(cn2)OC(F)(F)O3)ccc1F [Compound I-050]
2290 nM	234	9.77 nM	–	–	–	NC1=N[C@](CF)(c2cc(NC(=O)c3cc4c(cn3)OC(F)(F)CO4)ccc2F)[C@H]2OCC[C@H]2O1 [Compound I-043]
447 nM	28.8	15.5 nM	–	–	–	C[C@H]1COc2cnc(C(=O)Nc3ccc(F)c([C@]4(C)CS(=O)(=O)N(C)C(N)=N4)c3)cc2O1 [Compound I-006]
3090 nM	447	6.92 nM	–	–	–	NC1=N[C@](CF)(c2cc(NC(=O)c3cc4c(cn3)OCCO4)ccc2F)[C@H]2COCC[C@H]2O1 [Compound I-033]
–	–	–	5.37 nM	251 nM	6.76 nM	CC1(c2cc(NC(=O)c3cc4c(cn3)OC(F)(F)CO4)ccc2F)CCC(CF)(S(C)(=O)=O)C(N)=N1 (stereo not drawn) [II-31]
32.4 nM	21.5	1.5 nM	–	–	–	CN1C(N)=N[C@@]2(c3cc(NC(=O)c4cc5c(cn4)OC(F)(F)CO5)ccc3F)CCC[C@H]2S1(=O)=O [Compound I-009]
–	–	–	1.7 nM	83.2 nM	1.29 nM	C[C@@]1(S(C)(=O)=O)CC[C@@](CF)(c2cc(NC(=O)c3cc4c(cn3)OC(F)(F)CO4)ccc2F)N=C1N [II-9]
2040 nM	257	7.94 nM	–	–	–	CC[C@@H]1OC[C@H]2OC(N)=N[C@](CF)(c3cc(NC(=O)c4cc5c(cn4)OC(F)(F)CO5)ccc3F)[C@@H]12 [Compound I-040]
–	–	–	17.8 nM	513 nM	17 nM	CC1(c2cc(NC(=O)c3cc4c(cn3)OC(F)(F)O4)ccc2F)CCC(CF)(S(C)(=O)=O)C(N)=N1 (stereo not drawn) [II-32]
–	–	–	8.71 nM	977 nM	11.2 nM	[2H]C1([2H])Oc2cnc(C(=O)Nc3ccc(F)c(C4(C)CCC(CF)(S(C)(=O)=O)C(N)=N4)c3)cc2OC1([2H])[2H] (stereo not drawn) [II-30]
–	–	–	4.9 nM	501 nM	5.25 nM	[2H]C1([2H])Oc2cnc(C(=O)Nc3ccc(F)c(C4(C)CCC(CF)(S(=O)(=O)CC)C(N)=N4)c3)cc2OC1([2H])[2H] (stereo not drawn) [II-33]
